Data taken from patent publication US10584117B2, “1,3,4-oxadiazole amide derivative compound as histone deacetylase 6 inhibitor, and pharmaceutical composition containing same” (Chong Kun Dang Pharmaceutical Corp., priority 2015, dated 2020).

Target: T1, human recombinant HDAC6 (Homo sapiens, UniProt Q9UBN7)
T1 construct: purchased Calbiochem 382180
T1 sequence (Q9UBN7 1-1215): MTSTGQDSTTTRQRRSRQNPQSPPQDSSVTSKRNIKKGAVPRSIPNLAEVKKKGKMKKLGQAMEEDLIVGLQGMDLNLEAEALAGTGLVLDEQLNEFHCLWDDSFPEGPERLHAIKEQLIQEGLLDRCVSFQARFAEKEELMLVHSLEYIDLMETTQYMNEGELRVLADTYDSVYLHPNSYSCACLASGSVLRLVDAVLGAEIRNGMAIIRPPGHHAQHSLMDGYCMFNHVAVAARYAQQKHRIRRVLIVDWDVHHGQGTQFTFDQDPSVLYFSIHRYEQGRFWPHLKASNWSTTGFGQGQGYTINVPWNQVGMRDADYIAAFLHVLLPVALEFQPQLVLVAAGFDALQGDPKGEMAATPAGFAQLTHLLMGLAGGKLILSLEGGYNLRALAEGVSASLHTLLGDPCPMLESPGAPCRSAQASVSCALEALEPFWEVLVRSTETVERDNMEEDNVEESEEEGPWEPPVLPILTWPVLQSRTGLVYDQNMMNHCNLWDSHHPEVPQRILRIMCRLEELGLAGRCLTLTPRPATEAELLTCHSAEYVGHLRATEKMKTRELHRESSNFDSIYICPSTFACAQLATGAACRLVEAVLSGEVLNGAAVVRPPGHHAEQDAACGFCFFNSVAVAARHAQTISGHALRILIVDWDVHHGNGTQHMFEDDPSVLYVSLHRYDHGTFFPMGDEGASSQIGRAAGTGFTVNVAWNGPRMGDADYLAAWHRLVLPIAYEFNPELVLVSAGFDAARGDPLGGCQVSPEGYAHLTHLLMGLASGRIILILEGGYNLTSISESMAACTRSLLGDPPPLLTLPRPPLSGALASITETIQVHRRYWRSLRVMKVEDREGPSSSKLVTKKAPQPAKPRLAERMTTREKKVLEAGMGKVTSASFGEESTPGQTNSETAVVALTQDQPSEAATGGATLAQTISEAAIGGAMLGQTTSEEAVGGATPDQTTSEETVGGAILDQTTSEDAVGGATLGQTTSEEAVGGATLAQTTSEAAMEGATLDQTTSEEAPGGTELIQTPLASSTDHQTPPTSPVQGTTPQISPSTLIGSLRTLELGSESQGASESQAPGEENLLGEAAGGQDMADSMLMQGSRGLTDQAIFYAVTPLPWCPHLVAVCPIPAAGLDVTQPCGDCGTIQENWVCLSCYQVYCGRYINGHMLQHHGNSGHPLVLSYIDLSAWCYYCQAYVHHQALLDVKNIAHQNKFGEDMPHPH
Test: HDAC enzyme activity inhibition assay (HDAC6, fluorimetric kit)
Assay type: biochemical
Settings: for HDAC6 selectivity (fold): HDAC6 versus HDAC1; for IC50: same protocol as the HDAC1 test
Description: In order to examine the HDAC6 selectivity of the compounds of formula I of the present invention by HDAC1 and HDAC6 enzymatic activity inhibition assays, an experiment was performed using a conventional substance as a control. HDAC enzyme activity was measured using a HDAC Fluorimetric Drug Discovery Kit (BML-AK511, 516) from Enzo Life Science. For the HDAC1 enzyme activity test, human recombinant HDAC1 (BML-SE456) was used as an enzyme source, and Fluor de Lys®-“SIRT1 (BNL-KI177) was used as a substrate. A 5-fold dilution of the compound was seeded into a 96-well plate, and then 0.3 μg of the enzyme and 10 μM of the substrate were added to each well of the plate and allowed to react at 30° C. for 60 minutes. Then, Fluor de Lys®-Developer II (BML-KI176) was added thereto and allowed to react for 30 minutes, after which the fluorescence value (Ex 360, Em 460) was measured using a multi-plate reader (Flexstation 3, Molecular Device). The HDAC6 enzyme was tested using human recombinant HDAC6 (382180) from Calbiochem, according to the same protocol as the HDAC1 enzyme activity test method. Based on the resulting values, each IC50 value was calculated using GraphPad Prism4.0 program.

Structure (SMILES)	HDAC6 selectivity (fold)	IC50
CC(=O)N1CCC(C(=O)N(Cc2ccc(-c3nnc(C(F)(F)F)o3)cc2)c2ccccc2)CC1 [Compound 11161, 1-acetyl-N-phenyl-N-(4-(5-(trifluoromethyl)-1,3,4-oxadiazol-2-yl)benzyl)piperidine-4-carboxamide]	204 fold	489 nM
CC(C)(C)OC(=O)N1CCC(C(=O)N(Cc2ccc(-c3nnc(C(F)(F)F)o3)cc2)c2ccccc2)CC1 [Compound 11135, tert-butyl 4-(phenyl(4-(5-(trifluoromethyl)-1,3,4-oxadiazol-2-yl)benzyl)carbamoyl)piperidine-1-carboxylate]	36 fold	2750 nM
CCN1CC(C(=O)N(Cc2ccc(-c3nnc(C(F)(F)F)o3)cc2F)c2ccccc2)C1 [Compound 11233, 1-ethyl-N-(2-fluoro-4-(5-(trifluoromethyl)-1,3,4-oxadiazol-2-yl)benzyl)-N-phenylazetidine-3-carboxamide]	2703 fold	37 nM
O=C(c1ccncc1)N(Cc1ccc(-c2nnc(C(F)(F)F)o2)cc1F)c1ccccc1 [Compound 11109, N-(2-fluoro-4-(5-(trifluoromethyl)-1,3,4-oxadiazol-2-yl)benzyl)-N-phenylisonicotinamide]	1818 fold	55 nM
CC(=O)N1CCN(CC(=O)N(Cc2ccc(-c3nnc(C(F)F)o3)cc2F)c2ccc(F)c(Cl)c2)CC1 [Compound 11611, 2-(4-acetylpiperazin-1-yl)-N-(3-chloro-4-fluorophenyl)-N-(4-(5-(difluoromethyl)-1,3,4-oxadiazol-2-yl)-2-fluorobenzyl)acetamide]	625 fold	160 nM
O=C(C1CCN(C(=O)C(F)(F)F)CC1)N(Cc1ccc(-c2nnc(C(F)(F)F)o2)cc1F)c1ccccc1 [Compound 11206, N-(2-fluoro-4-(5-(trifluoromethyl)-1,3,4-oxadiazol-2-yl)benzyl)-N-phenyl-1-(2,2,2-trifluoroacetyl)piperidine-4-carboxamide]	269 fold	372 nM
CC(C)N1CCC(C(=O)N(Cc2ccc(-c3nnc(C(F)(F)F)o3)cc2)c2ccccc2)CC1 [Compound 11143, 1-isopropyl-N-phenyl-N-(4-(5-(trifluoromethyl)-1,3,4-oxadiazol-2-yl)benzyl)piperidine-4-carboxamide]	452 fold	221 nM
CC(C)N1CC(C(=O)N(Cc2ccc(-c3nnc(C(F)F)o3)cc2F)c2cccc(F)c2)C1 [Compound 11329, N-(4-(5-(difluoromethyl)-1,3,4-oxadiazol-2-yl)-2-fluorobenzyl)-N-(3-fluorophenyl)-1-isopropylazetidine-3-arboxamide]	1786 fold	56 nM
O=C(C1CN(C(=O)C(F)(F)F)C1)N(Cc1ccc(-c2nnc(C(F)(F)F)o2)cc1)c1ccccc1 [Compound 11159, N-phenyl-1-(2,2,2-trifluoroacetyl)-N-(4-(5-(trifluoromethyl)-1,3,4-oxadiazol-2-yl)benzyl)azetidine-3-carboxamide]	787 fold	127 nM
Cl.O=C(C1CCNCC1)N(Cc1ccc(-c2nnc(C(F)(F)F)o2)cc1)c1ccccc1 [Compound 11137, N-phenyl-N-(4-(5-(trifluoromethyl)-1,3,4-oxadiazol-2-yl)benzyl)piperidine-4-carboxamide hydrochloride]	275 fold	364 nM
O=C(C1CCN(C2COC2)CC1)N(Cc1ccc(-c2nnc(C(F)(F)F)o2)cc1F)c1ccccc1 [Compound 11621, N-(2-fluoro-4-(5-(trifluoromethyl)-1,3,4-oxadiazol-2-yl)benzyl)-1-(oxetan-3-yl)-N-phenylpiperidine-4-carboxamide]	358 fold	279 nM
O=C(C1CN(C(=O)C(F)(F)F)C1)N(Cc1ccc(-c2nnc(C(F)F)o2)cc1F)c1ccccc1 [Compound 11244, N-(4-(5-(difluoromethyl)-1,3,4-oxadiazol-2-yl)-2-fluorobenzyl)-N-phenyl-1-(2,2,2-trifluoroacetyl)azetidine-3-carboxamide]	1587 fold	63 nM

The remaining lines, values ahead:

HDAC6 selectivity (fold)	IC50	Structure (SMILES)
1124 fold	89 nM	CCC(=O)N1CCC(C(=O)N(Cc2ccc(-c3nnc(C(F)F)o3)cc2F)c2ccccc2)CC1 [Compound 11212, N-(4-(5-(difluoromethyl)-1,3,4-oxadiazol-2-yl)-2-fluorobenzyl)-N-phenyl-1-propionylpiperidine-4-carboxamide]
1961 fold	51 nM	CC(=O)N1CC(C(=O)N(Cc2ccc(-c3nnc(C(F)F)o3)cc2F)c2cccc(F)c2)C1 [Compound 11330, 1-acetyl-N-(4-(5-(difluoromethyl)-1,3,4-oxadiazol-2-yl)-2-fluorobenzyl)-N-(3-fluorophenyl)azetidine-3-carboxamide]
524 fold	191 nM	CC(=O)N(Cc1ccc(-c2nnc(C(F)(F)F)o2)cc1)c1ccccc1 [Compound 11105, N-phenyl-N-(4-(5-(trifluoromethyl)-1,3,4-oxadiazol-2-yl)benzyl)acetamide]
2439 fold	41 nM	CC(C)N1CC(C(=O)N(Cc2ccc(-c3nnc(C(F)F)o3)cc2F)c2ccccc2)C1 [Compound 11240, N-(4-(5-(difluoromethyl)-1,3,4-oxadiazol-2-yl)-2-fluorobenzyl)-1-isopropyl-N-phenylazetidine-3-carboxamide]
2564 fold	39 nM	O=C(c1ccncc1)N(Cc1ccc(-c2nnc(C(F)F)o2)cc1F)c1cccc(F)c1 [Compound 11189, N-(4-(5-(difluoromethyl)-1,3,4-oxadiazol-2-yl)-2-fluorobenzyl)-N-(3-fluorophenyl)isonicotinamide]
1351 fold	74 nM	CC(=O)N1CCC(C(=O)N(Cc2ccc(-c3nnc(C(F)F)o3)cc2F)c2ccccc2)CC1 [Compound 11211, 1-acetyl-N-(4-(5-(difluoromethyl)-1,3,4-oxadiazol-2-yl)-2-fluorobenzyl)-N-phenylpiperidine-4-carboxamide]
303 fold	330 nM	CC(C)N1CC(C(=O)N(Cc2ccc(-c3nnc(C(F)(F)F)o3)cc2)c2ccccc2)C1 [Compound 11142, 1-isopropyl-N-phenyl-N-(4-(5-(trifluoromethyl)-1,3,4-oxadiazol-2-yl)benzyl)azetidine-3-carboxamide]
1786 fold	56 nM	CCC(=O)N1CC(C(=O)N(Cc2ccc(-c3nnc(C(F)F)o3)cc2F)c2cccc(F)c2)C1 [Compound 11331, N-(4-(5-(difluoromethyl)-1,3,4-oxadiazol-2-yl)-2-fluorobenzyl)-N-(3-fluorophenyl)-1-propionylazetidine-3-carboxamide]
1923 fold	52 nM	CN1CC(C(=O)N(Cc2ccc(-c3nnc(C(F)(F)F)o3)cc2F)c2ccccc2)C1 [Compound 11232, N-(2-fluoro-4-(5-(trifluoromethyl)-1,3,4-oxadiazol-2-yl)benzyl)-1-methyl-N-phenylazetidine-3-carboxamide]
